Legend:
[1] = Comments (NB not yet translated). [column 'COMMENTAIRES' in source]; conditions: human
[2] = human
[3] = human, serum
[4] = human; remark: listed apart in the source
[5] = Highest frequency of moderate liver toxicity observed during clinical trials, expressed as a percentage. [column '% BIOL' in source]; conditions: human
[6] = Highest frequency of acute liver toxicity observed during clinical trials, expressed as a percentage. [column '% AIGUE' in source]; conditions: human
[7] = human, serum; remark: listed apart in the source
[8] = human, serum, 4383 h
[9] = Presence of at least one case with successful reintroduction. [column 'REINT' in source]; conditions: human
[10] = Proposed mechanism(s) of liver damage. [column 'MEC' in source]; conditions: human
[11] = human; remark: listed apart in the source
[12] = human; remark: listed apart in the source
[13] = human; remark: listed apart in the source
[14] = Times to onset, minimal and maximal, observed in the indexed observations. [column 'DELAI' in source]; conditions: human
[15] = human; remark: listed apart in the source
[16] = human; remark: listed apart in the source
[17] = human; remark: listed apart in the source
[18] = human; remark: listed apart in the source
[19] = human; remark: listed apart in the source
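Wherever Hepatotoxicity (association with vascular disease) is given: count of indexed literature references reporting vascular liver injury in humans, e.g. peliosis hepatitis, hepatic veno-occlusive disease or Budd-Chiari syndrome.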
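Wherever Hepatotoxicity (benign tumour) is given: value is a count of indexed literature references citing a benign tumour confirmed by histopathology.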
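Wherever Hepatotoxicity (choleostasis) is given: human cholestatic liver injury, shown by histopathology or by peak ALT or AST elevation over alkaline phosphatase ratio below 2, value counts indexed literature reports.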
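Wherever Hepatotoxicity (chronic liver disease) is given: chronic liver injury confirmed by histopathology or persistently raised serum aminotransferase activity beyond 6 months, value given as the count of indexed literature references.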
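Wherever Hepatotoxicity (cirrhosis) is given: value is a count of indexed literature references reporting cirrhosis confirmed by histopathology.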
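Wherever Hepatotoxicity (cytolytic) is given: human cytolytic liver injury, shown by histopathology or by a ratio above 5 of peak ALT or AST elevation to alkaline phosphatase elevation, value counts indexed references.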
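Wherever Hepatotoxicity (granulomatous hepatitis) is given: value is a count of indexed literature references reporting granulomatous liver disease confirmed by histopathology.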
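Wherever Hepatotoxicity (malignant tumour) is given: malignant tumour confirmed by histopathology, value gives the count of indexed literature references reporting it.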
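Wherever Hepatotoxicity (severe hepatitis) is given: human clinical data: severe hepatitis, meaning potentially life-threatening liver failure or clinically observed cases, the value counts how many indexed literature references report it.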
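Wherever Hepatotoxicity (steatosis) is given: steatosis confirmed by histopathology, value is the count of indexed references.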

O=c1[nH]c(=O)n([C@H]2C[C@H](O)[C@@H](CO)O2)cc1F [FLOXURIDINE]
Hepatotoxicity (comment) [1]: CHOLECYSTITE_ACALCULEUSE CHOLANGITE/IAH #CBP | Hepatotoxicity (choleostasis) [2]: 7 | Hepatotoxicity (acute) [3]: 9 | Hepatotoxicity (association with vascular disease) [4]: 3 | Hepatotoxicity (moderate) [5]: 100% | Hepatotoxicity (acute) [6]: 60% | Hepatotoxicity (moderate) [7]: 25 | Hepatotoxicity (chronic liver disease) [8]: 0 | Hepatotoxicity (successful reintroduction) [9]: yes | Hepatotoxicity (mechanism) [10]: Dose-dependant | Hepatotoxicity (granulomatous hepatitis) [11]: 0 | Hepatotoxicity (cirrhosis) [12]: 4 | Hepatotoxicity (cytolytic) [13]: 2 | Hepatotoxicity (time to onset) [14]: 3 cures - 12 cures | Hepatotoxicity (severe hepatitis) [15]: 3 | Hepatotoxicity (malignant tumour) [16]: 0 | Hepatotoxicity (benign tumour) [17]: 0 | Hepatotoxicity (steatosis) [18]: 2 | Hepatotoxicity (animal toxicity known) [19]: yes

CN(C)CCC=C1c2ccccc2CCc2ccccc21 [AMITRIPTYLINE]
Hepatotoxicity (comment) [1]: CHOLESTASE_PROLONGEE CHOLANGITE | Hepatotoxicity (choleostasis) [2]: 12 | Hepatotoxicity (acute) [3]: 18 | Hepatotoxicity (association with vascular disease) [4]: 0 | Hepatotoxicity (moderate) [5]: 26% | Hepatotoxicity (acute) [6]: 3% | Hepatotoxicity (moderate) [7]: 11 | Hepatotoxicity (chronic liver disease) [8]: 0 | Hepatotoxicity (successful reintroduction) [9]: yes | Hepatotoxicity (mechanism) [10]: Allergic | Hepatotoxicity (granulomatous hepatitis) [11]: 0 | Hepatotoxicity (cirrhosis) [12]: 0 | Hepatotoxicity (cytolytic) [13]: 9 | Hepatotoxicity (time to onset) [14]: 1 week - 10 months | Hepatotoxicity (severe hepatitis) [15]: 6 | Hepatotoxicity (malignant tumour) [16]: 0 | Hepatotoxicity (benign tumour) [17]: 0 | Hepatotoxicity (steatosis) [18]: 0 | Hepatotoxicity (animal toxicity known) [19]: yes

CNC(=O)OCc1cccc(COC(=O)NC)n1 [PYRICARBATE]
Hepatotoxicity (comment) [1]: AC_ANTI-MFR/-ML | Hepatotoxicity (choleostasis) [2]: 4 | Hepatotoxicity (acute) [3]: 9 | Hepatotoxicity (association with vascular disease) [4]: 0 | Hepatotoxicity (moderate) [5]: 10% | Hepatotoxicity (acute) [6]: 0.7% | Hepatotoxicity (moderate) [7]: 4 | Hepatotoxicity (chronic liver disease) [8]: 0 | Hepatotoxicity (successful reintroduction) [9]: yes | Hepatotoxicity (mechanism) [10]: Allergic | Hepatotoxicity (granulomatous hepatitis) [11]: 0 | Hepatotoxicity (cirrhosis) [12]: 0 | Hepatotoxicity (cytolytic) [13]: 8 | Hepatotoxicity (time to onset) [14]: 2 weeks - 6 months | Hepatotoxicity (severe hepatitis) [15]: 3 | Hepatotoxicity (malignant tumour) [16]: 0 | Hepatotoxicity (benign tumour) [17]: 0 | Hepatotoxicity (steatosis) [18]: 0 | Hepatotoxicity (animal toxicity known) [19]: A

FC(F)OC(F)(F)C(F)Cl (centres undefined)
Hepatotoxicity (comment) [1]: RC/HALOTHANE AC_ANTI-TFA | Hepatotoxicity (choleostasis) [2]: 7 | Hepatotoxicity (acute) [3]: 21 | Hepatotoxicity (association with vascular disease) [4]: 0 | Hepatotoxicity (moderate) [5]: 58% | Hepatotoxicity (acute) [6]: 0.7% | Hepatotoxicity (moderate) [7]: 15 | Hepatotoxicity (chronic liver disease) [8]: 0 | Hepatotoxicity (successful reintroduction) [9]: yes | Hepatotoxicity (mechanism) [10]: Allergic, Reactive metabolite | Hepatotoxicity (granulomatous hepatitis) [11]: 1 | Hepatotoxicity (cirrhosis) [12]: 0 | Hepatotoxicity (cytolytic) [13]: 18 | Hepatotoxicity (time to onset) [14]: 2 hours - 19 days | Hepatotoxicity (severe hepatitis) [15]: 10 | Hepatotoxicity (malignant tumour) [16]: 0 | Hepatotoxicity (benign tumour) [17]: 0 | Hepatotoxicity (steatosis) [18]: 2 | Hepatotoxicity (animal toxicity known) [19]: yes

Cc1onc(-c2c(F)cccc2Cl)c1C(=O)N[C@@H]1C(=O)N2[C@@H]1SC(C)(C)[C@@H]2C(=O)O [FLOXACILLIN]
Hepatotoxicity (comment) [1]: CHOLESTASE_PROLONGEE CHOLANGITE #CBP | Hepatotoxicity (choleostasis) [2]: 20 | Hepatotoxicity (acute) [3]: 26 | Hepatotoxicity (association with vascular disease) [4]: 0 | Hepatotoxicity (moderate) [5]: 3.4% | Hepatotoxicity (acute) [6]: 0% | Hepatotoxicity (moderate) [7]: 4 | Hepatotoxicity (chronic liver disease) [8]: 1 | Hepatotoxicity (successful reintroduction) [9]: yes | Hepatotoxicity (mechanism) [10]: Allergic | Hepatotoxicity (granulomatous hepatitis) [11]: 1 | Hepatotoxicity (cirrhosis) [12]: 2 | Hepatotoxicity (cytolytic) [13]: 2 | Hepatotoxicity (time to onset) [14]: 12 hours - 2 months | Hepatotoxicity (severe hepatitis) [15]: 2 | Hepatotoxicity (malignant tumour) [16]: 0 | Hepatotoxicity (benign tumour) [17]: 0 | Hepatotoxicity (steatosis) [18]: 2 | Hepatotoxicity (animal toxicity known) [19]: yes

CN(Cc1cnc2nc(N)nc(N)c2n1)c1ccc(C(=O)N[C@@H](CCC(=O)O)C(=O)O)cc1 [METHOTREXATE]
Hepatotoxicity (comment) [1]: I/ETRETINATE REACTIVATION_HVB SHNA MVO | Hepatotoxicity (choleostasis) [2]: 2 | Hepatotoxicity (acute) [3]: 26 | Hepatotoxicity (association with vascular disease) [4]: 5 | Hepatotoxicity (moderate) [5]: 88% | Hepatotoxicity (acute) [6]: 35% | Hepatotoxicity (moderate) [7]: 173 | Hepatotoxicity (chronic liver disease) [8]: 45 | Hepatotoxicity (successful reintroduction) [9]: yes | Hepatotoxicity (mechanism) [10]: Dose-dependant | Hepatotoxicity (granulomatous hepatitis) [11]: 8 | Hepatotoxicity (cirrhosis) [12]: 42 | Hepatotoxicity (cytolytic) [13]: 21 | Hepatotoxicity (time to onset) [14]: 4 hours - 16 years | Hepatotoxicity (severe hepatitis) [15]: 5 | Hepatotoxicity (malignant tumour) [16]: 8 | Hepatotoxicity (benign tumour) [17]: 0 | Hepatotoxicity (steatosis) [18]: 16 | Hepatotoxicity (animal toxicity known) [19]: yes

Cc1ccc(S(=O)(=O)NC(=O)NC2CCCCC2)cc1N [METAHEXAMIDE]
Hepatotoxicity (comment) [1]: PERICHOLANGITE RC/CARBUTAMIDE | Hepatotoxicity (choleostasis) [2]: 4 | Hepatotoxicity (acute) [3]: 11 | Hepatotoxicity (association with vascular disease) [4]: 0 | Hepatotoxicity (moderate) [5]: 24% | Hepatotoxicity (acute) [6]: 4.4% | Hepatotoxicity (moderate) [7]: 6 | Hepatotoxicity (chronic liver disease) [8]: 0 | Hepatotoxicity (successful reintroduction) [9]: yes | Hepatotoxicity (mechanism) [10]: Dose-dependant | Hepatotoxicity (granulomatous hepatitis) [11]: 0 | Hepatotoxicity (cirrhosis) [12]: 1 | Hepatotoxicity (cytolytic) [13]: 7 | Hepatotoxicity (time to onset) [14]: 4 days - 1 week | Hepatotoxicity (severe hepatitis) [15]: 2 | Hepatotoxicity (malignant tumour) [16]: 0 | Hepatotoxicity (benign tumour) [17]: 0 | Hepatotoxicity (steatosis) [18]: 0 | Hepatotoxicity (animal toxicity known) [19]: yes

CC(=O)N1CCN(c2ccc(OCC3COC(Cn4ccnc4)(c4ccc(Cl)cc4Cl)O3)cc2)CC1 (centres undefined) [KETOCONAZOLE]
Hepatotoxicity (comment) [1]: CHOLESTASE_PROLONGEE | Hepatotoxicity (choleostasis) [2]: 19 | Hepatotoxicity (acute) [3]: 45 | Hepatotoxicity (association with vascular disease) [4]: 0 | Hepatotoxicity (moderate) [5]: 50% | Hepatotoxicity (acute) [6]: 2.9% | Hepatotoxicity (moderate) [7]: 62 | Hepatotoxicity (chronic liver disease) [8]: 3 | Hepatotoxicity (successful reintroduction) [9]: yes | Hepatotoxicity (mechanism) [10]: Toxic, Dose-dependant | Hepatotoxicity (granulomatous hepatitis) [11]: 1 | Hepatotoxicity (cirrhosis) [12]: 0 | Hepatotoxicity (cytolytic) [13]: 37 | Hepatotoxicity (time to onset) [14]: 3 days - 5 years | Hepatotoxicity (severe hepatitis) [15]: 14 | Hepatotoxicity (malignant tumour) [16]: 0 | Hepatotoxicity (benign tumour) [17]: 0 | Hepatotoxicity (steatosis) [18]: 2 | Hepatotoxicity (animal toxicity known) [19]: yes

CCCCc1oc2ccccc2c1C(=O)c1cc(I)c(OCCN(CC)CC)c(I)c1 [AMIODARONE]
Hepatotoxicity (comment) [1]: RC/AJMALINE #S.REYE | Hepatotoxicity (choleostasis) ([2]; Liver): 6 | Hepatotoxicity (acute) [3]: 34 | Hepatotoxicity (association with vascular disease) [4]: 0 | Hepatotoxicity (moderate) ([5]; Liver): 55% | Hepatotoxicity (acute) ([6]; Liver): 6% | Hepatotoxicity (moderate) [7]: 55 | Hepatotoxicity (chronic liver disease) [8]: 8 | Hepatotoxicity (successful reintroduction) [9]: yes | Hepatotoxicity (mechanism) [10]: Allergic, Dose-dependant | Hepatotoxicity (granulomatous hepatitis) ([11]; Liver): 2 | Hepatotoxicity (cirrhosis) [12]: 17 | Hepatotoxicity (cytolytic) ([13]; Liver): 20 | Hepatotoxicity (time to onset) [14]: 1 day - 10 years | Hepatotoxicity (severe hepatitis) ([15]; Liver): 14 | Hepatotoxicity (malignant tumour) [16]: 0 | Hepatotoxicity (benign tumour) [17]: 0 | Hepatotoxicity (steatosis) [18]: 4 | Hepatotoxicity (animal toxicity known) [19]: yes

CO[C@H]1/C=C/O[C@@]2(C)Oc3c(C)c(O)c4c(O)c(c(/C=N/N5CCN(C)CC5)c(O)c4c3C2=O)NC(=O)/C(C)=C\C=C\[C@H](C)[C@H](O)[C@@H](C)[C@@H](O)[C@@H](C)[C@H](OC(C)=O)[C@@H]1C [RIFAMPIN]
Hepatotoxicity (comment) [1]: AC_ANTI-N I/ISONIAZIDE/TROLEANDOMYCINE | Hepatotoxicity (choleostasis) [2]: 19 | Hepatotoxicity (acute) [3]: 38 | Hepatotoxicity (association with vascular disease) [4]: 0 | Hepatotoxicity (moderate) [5]: 23% | Hepatotoxicity (acute) [6]: 7.3% | Hepatotoxicity (moderate) [7]: 22 | Hepatotoxicity (chronic liver disease) [8]: 0 | Hepatotoxicity (successful reintroduction) [9]: yes | Hepatotoxicity (mechanism) [10]: Allergic, Dose-dependant | Hepatotoxicity (granulomatous hepatitis) [11]: 0 | Hepatotoxicity (cirrhosis) [12]: 0 | Hepatotoxicity (cytolytic) [13]: 14 | Hepatotoxicity (time to onset) [14]: 2 days - 14 months | Hepatotoxicity (severe hepatitis) [15]: 6 | Hepatotoxicity (malignant tumour) [16]: 0 | Hepatotoxicity (benign tumour) [17]: 0 | Hepatotoxicity (steatosis) [18]: 0 | Hepatotoxicity (animal toxicity known) [19]: yes

C[C@H](CS)C(=O)N1CCC[C@H]1C(=O)O [CAPTOPRIL]
Hepatotoxicity (comment) [1]: PSEUDOCHOLANGITE RC/ENALAPRIL/LISINOPRIL | Hepatotoxicity (choleostasis) [2]: 16 | Hepatotoxicity (acute) [3]: 26 | Hepatotoxicity (association with vascular disease) [4]: 0 | Hepatotoxicity (moderate) ([5]; Liver): 4% | Hepatotoxicity (acute) ([6]; Liver): 0.1% | Hepatotoxicity (moderate) [7]: 5 | Hepatotoxicity (chronic liver disease) [8]: 1 | Hepatotoxicity (successful reintroduction) [9]: yes | Hepatotoxicity (mechanism) [10]: Allergic | Hepatotoxicity (granulomatous hepatitis) [11]: 0 | Hepatotoxicity (cirrhosis) [12]: 1 | Hepatotoxicity (cytolytic) [13]: 7 | Hepatotoxicity (time to onset) [14]: 9 days - 26 months | Hepatotoxicity (severe hepatitis) ([15]; Liver): 1 | Hepatotoxicity (malignant tumour) [16]: 0 | Hepatotoxicity (benign tumour) [17]: 0 | Hepatotoxicity (steatosis) [18]: 1 | Hepatotoxicity (animal toxicity known) [19]: yes
